Source: patent publication US20110039879A1, “METHODS FOR INCREASING WHITE BLOOD CELLS” (FibroGen ,Inc., priority 2007, published 2011)

Assays:
Type in all cases: in vivo, Swiss-Webster mice
[1] = system: total white blood cell (WBC); assay: Total white blood cells by complete blood count on day 8, dosing day 1, 3, 5; details: Mus musculus, 192 h, mice, oral gavage, measured on day 8, read-out: Total WBC % Increase Over Control; for change in vivo at 20 mg/kg: 20 mg/kg on day 1, day 3 and day 5; for change in vivo at 200 mg/kg: 200 mg/kg on day 1, day 3 and day 5; for change in vivo at 100 mg/kg: 100 mg/kg on day 1, day 3 and day 5
Method: (§1) To examine the effect of compounds and methods of the present invention on increasing white blood cells, the following studies were performed. In one series of experiments, male Swiss-Webster mice were administered various compounds of the present invention via oral gavage using a ball-tipped gavage needle. […] Animals were dosed once daily for 3 or 4 days. Six hours after the final dosing, 200 μl blood samples were collected and total white blood cell, neutrophil, and lymphocyte levels were measured by complete blood count (CBC) using a CellDyn cell analyzer (Abbott Laboratories).
(§2) In another series of experiments, male Swiss-Webster mice were administered various compounds (see Table 7 and Table 8) of the present invention via oral gavage using a ball-tipped gavage needle. […] Total WBC, neutrophil, lymphocyte, and monocyte levels were measured in mice as described above on day 8 following administration of compound on day 1, day 3, and day 5.

[2] = system: neutrophils; assay: Neutrophils by complete blood count on day 8, dosing day 1, 3, 5; details: mice, oral gavage, measured on day 8
[3] = system: lymphocytes; assay: Lymphocytes by complete blood count on day 8, dosing day 1, 3, 5; details: mice, oral gavage, measured on day 8; for change in vivo at 20 mg/kg / change in vivo at 200 mg/kg / change in vivo at 100 mg/kg: Mus musculus, Lymphocyte, 192 h, read-out: Lymphocytes % Increase Over Control
Method: as §1, §2

[4] = system: total white blood cell (WBC); assay: Total white blood cells by complete blood count on day 8, dosing day 1, 3, 5; details: mice, oral gavage, measured on day 8
[5] = system: monocytes; assay: Monocytes by complete blood count on day 8, dosing day 1, 3, 5; details: mice, oral gavage, measured on day 8; for change in vivo at 20 mg/kg / change in vivo at 200 mg/kg / change in vivo at 100 mg/kg: Mus musculus, Monocyte, 192 h, read-out: Monocytes % Increase Over Control
[6] = system: neutrophils; assay: Neutrophils by complete blood count on day 8, dosing day 1, 3, 5; details: Mus musculus, Neutrophil, 192 h, mice, oral gavage, measured on day 8, read-out: Neutrophils % Increase Over Control; for change in vivo at 20 mg/kg: 20 mg/kg on day 1, day 3 and day 5; for change in vivo at 200 mg/kg: 200 mg/kg on day 1, day 3 and day 5; for change in vivo at 100 mg/kg: 100 mg/kg on day 1, day 3 and day 5
Method: as §1, §2

[7] = 20 mg/kg on day 1, day 3 and day 5
[8] = 200 mg/kg on day 1, day 3 and day 5
[9] = 100 mg/kg on day 1, day 3 and day 5

| Compound | change in vivo at 200 mg/kg [1] [%] | Neutrophils [2, 8] | change in vivo at 200 mg/kg [3, 8] [%] | Lymphocytes [3, 8] | Total WBC [4, 8] | change in vivo at 200 mg/kg [5, 8] [%] | Monocytes [5, 8] | change in vivo at 200 mg/kg [6] [%] | change in vivo at 100 mg/kg [1] [%] | Neutrophils [2, 9] | change in vivo at 100 mg/kg [3, 9] [%] | Lymphocytes [3, 9] | Total WBC [4, 9] | Monocytes [5, 9] | change in vivo at 100 mg/kg [6] [%] | also measured |
| --- | --- | --- | --- | --- | --- | --- | --- | --- | --- | --- | --- | --- | --- | --- | --- | --- |
| CCCCCCn1cc(Cl)c2c(O)c(C(=O)NCC(=O)O)nc(C#N)c21 [Compound AS, [(3-Chloro-7-cyano-1-hexyl-4-hydroxy-1H-pyrrolo[2,3-c]pyridine-5-carbonyl)-amino]-acetic acid] | – | – | – | – | – | – | – | – | – | – | – | – | – | – | – | change in vivo at 20 mg/kg [1]: 24%; Neutrophils [2, 7]: 0.9 10^3 cells/μl; change in vivo at 20 mg/kg [3, 7]: 24%; Lymphocytes [3, 7]: 6.0 10^3 cells/μl; Total WBC [4, 7]: 7.2 10^3 cells/μl; change in vivo at 20 mg/kg [5, 7]: -8%; Monocytes [5, 7]: 0.2 10^3 cells/μl; change in vivo at 20 mg/kg [6]: 42% |
| Cc1cccc(Oc2cccc3c(C#N)nc(C(=O)NCC(=O)O)c(O)c23)c1 [Compound AY, {[1-Cyano-4-hydroxy-5-m-tolyloxy-isoquinoline-3-carbonyl]-amino}-acetic acid] | – | – | – | – | – | – | – | – | – | – | – | – | – | – | – | change in vivo at 20 mg/kg [1]: 19%; Neutrophils [2, 7]: 0.7 10^3 cells/μl; change in vivo at 20 mg/kg [3, 7]: 21%; Lymphocytes [3, 7]: 6.5 10^3 cells/μl; Total WBC [4, 7]: 7.5 10^3 cells/μl; change in vivo at 20 mg/kg [5, 7]: 8%; Monocytes [5, 7]: 0.2 10^3 cells/μl; change in vivo at 20 mg/kg [6]: 9% |
| C[C@@H](c1ccccc1)n1c(Cl)c(Cl)c2c(O)c(C(=O)NCC(=O)O)nc(C#N)c21 [Compound AL, {[(S)-2,3-Dichloro-7-cyano-4-hydroxy-1-(1-phenyl-ethyl)-1H-pyrrolo[2,3-c]pyridine-5-carbonyl]-amino}-acetic acid] | 207 | 2.8 10^3 cells/μl | 205 | 15.3 10^3 cells/μl | 18.2 10^3 cells/μl | 33 | 0.1 10^3 cells/μl | 265 | – | – | – | – | – | – | – | – |
| C[C@H](c1ccccc1)n1c(Cl)c(Cl)c2c(O)c(C(=O)NCC(=O)O)nc(C#N)c21 [Compound L, {[(R)-2,3-Dichloro-7-cyano-4-hydroxy-1-(1-phenyl-ethyl)-1H-pyrrolo[2,3-c]pyridine-5-carbonyl]-amino}-acetic acid] | – | – | – | – | – | – | – | – | 281 | 4.8 10^3 cells/μl | 262 | 18.0 10^3 cells/μl | 22.8 10^3 cells/μl | 0.0 10^3 cells/μl | 469 | – |
| N#Cc1nc(C(=O)NCC(=O)O)c(O)c2c(Oc3ccc(Cl)cc3)cccc12 [Compound K, {[5-(4-Chloro-phenoxy)-1-cyano-4-hydroxy-isoquinoline-3-carbonyl]-amino}-acetic acid] | 491 | 0.8 10^3 cells/μl | 562 | 31.8 10^3 cells/μl | 33.0 10^3 cells/μl | 233 | 0.4 10^3 cells/μl | 34 | – | – | – | – | – | – | – | – |
| N#Cc1nc(C(=O)NCC(=O)O)c(O)c2c(Cl)cn(Cc3ccc(-c4ccccc4)cc3)c12 [Compound AW, [(1-Biphenyl-4-ylmethyl-3-chloro-7-cyano-4-hydroxy-1H-pyrrolo[2,3-c]pyridine-5-carbonyl)-amino]-acetic acid] | 616 | 4.7 10^3 cells/μl | 635 | 34.1 10^3 cells/μl | 39.1 10^3 cells/μl | 100 | 0.2 10^3 cells/μl | 604 | – | – | – | – | – | – | – | – |
| O=C(O)CNC(=O)c1c(O)c2ccccc2sc1=O [Compound BF, [(4-Hydroxy-2-oxo-2H-thiochromene-3-carbonyl)-amino]-acetic acid] | – | – | – | – | – | – | – | – | – | – | – | – | – | – | – | change in vivo at 20 mg/kg [1]: 17%; Neutrophils [2, 7]: 1.0 10^3 cells/μl; change in vivo at 20 mg/kg [3, 7]: 12%; Lymphocytes [3, 7]: 7.1 10^3 cells/μl; Total WBC [4, 7]: 8.4 10^3 cells/μl; change in vivo at 20 mg/kg [5, 7]: 64%; Monocytes [5, 7]: 0.2 10^3 cells/μl; change in vivo at 20 mg/kg [6]: 65% |
| N#Cc1nc(C(=O)NCC(=O)O)c(O)c2c(Oc3ccc(F)cc3)cccc12 [Compound G, {[1-Cyano-5-(4-fluoro-phenoxy)-4-hydroxy-isoquinoline-3-carbonyl]-amino}-acetic acid] | 138 | 0.8 10^3 cells/μl | 148 | 13.2 10^3 cells/μl | 14.3 10^3 cells/μl | 317 | 0.2 10^3 cells/μl | 48 | – | – | – | – | – | – | – | – |
| CC(C)Oc1ccc2c(O)c(C(=O)NCC(=O)O)nc(C#N)c2c1 [Compound H, [(1-Cyano-4-hydroxy-7-isopropoxy-isoquinoline-3-carbonyl)-amino]-acetic acid] | 783 | 0.7 10^3 cells/μl | 963 | 37.0 10^3 cells/μl | 37.8 10^3 cells/μl | – | 0.1 10^3 cells/μl | 6 | 120 | 1.6 10^3 cells/μl | 120 | 7.7 10^3 cells/μl | 9.4 10^3 cells/μl | 0.1 10^3 cells/μl | 135 | – |
| Cc1cccc(C)c1Oc1ccc2c(C#N)nc(C(=O)NCC(=O)O)c(O)c2c1 [Compound E, {[1-Cyano-6-(2,6-dimethyl-phenoxy)-4-hydroxy-isoquinoline-3-carbonyl]-amino}-acetic acid] | 221 | 0.8 10^3 cells/μl | 245 | 15.8 10^3 cells/μl | 16.6 10^3 cells/μl | 100 | 0.1 10^3 cells/μl | 54 | – | – | – | – | – | – | – | – |
| N#Cc1nc(C(=O)NCC(=O)O)c(O)c2ccn(Cc3ccccc3F)c12 [Compound I, {[7-Cyano-1-(2-fluoro-benzyl)-4-hydroxy-1H-pyrrolo[2,3-c]pyridine-5-carbonyl]-amino}-acetic acid] | – | – | – | – | – | – | – | – | 95 | 0.8 10^3 cells/μl | 127 | 12.1 10^3 cells/μl | 13.1 10^3 cells/μl | 0.2 10^3 cells/μl | 17 | change in vivo at 100 mg/kg [5, 9]: 425% |
| N#Cc1nc(C(=O)NCC(=O)O)c(O)c2ccn(Cc3ccc4ccccc4c3)c12 [Compound R, [(7-Cyano-4-hydroxy-1-naphthalen-2-ylmethyl-1H-pyrrolo[2,3-c]pyridine-5-carbonyl)-amino]-acetic acid] | – | – | – | – | – | – | – | – | 290 | 1.3 10^3 cells/μl | 330 | 21.4 10^3 cells/μl | 23.0 10^3 cells/μl | 0.3 10^3 cells/μl | 71 | change in vivo at 100 mg/kg [5, 9]: 205% |
| N#Cc1nc(C(=O)NCC(=O)O)c(O)c2cc(Oc3ccc(F)cc3)ccc12 [Compound D, {[1-Cyano-6-(4-fluoro-phenoxy)-4-hydroxy-isoquinoline-3-carbonyl]-amino}-acetic acid] | – | – | – | – | – | – | – | – | 152 | 1.3 10^3 cells/μl | 140 | 9.3 10^3 cells/μl | 10.8 10^3 cells/μl | 0.2 10^3 cells/μl | 242 | – |
| Cc1cccc(C)c1Oc1ccc2c(O)c(C(=O)NCC(=O)O)nc(C#N)c2c1 [Compound AI, {[1-Cyano-7-(2,6-dimethyl-phenoxy)-4-hydroxy-isoquinoline-3-carbonyl]-amino}-acetic acid] | – | – | – | – | – | – | – | – | 266 | 0.7 10^3 cells/μl | 303 | 17.4 10^3 cells/μl | 18.3 10^3 cells/μl | 0.1 10^3 cells/μl | 45 | change in vivo at 100 mg/kg [5, 9]: 0% |
